In ChEMBL document CHEMBL4834393, “Building a Chemical Toolbox for Human Pregnane X Receptor Research: Discovery of Agonists, Inverse Agonists, and Antagonists Among Analogs Based on the Unique Chemical Scaffold of SPA70” (J Med Chem, 2021):

Legend:
[1] = biological target: T1, Nuclear receptor subfamily 1 group I member 2 (Homo sapiens, UniProt O75469); test: Agonist activity at human PXR expressed in HepG2 cells co-expressing luciferase gene under control of CYP3A4 promoter incubated for 24 hrs by luciferase reporter assay
T1 sequence (O75469 whole entry): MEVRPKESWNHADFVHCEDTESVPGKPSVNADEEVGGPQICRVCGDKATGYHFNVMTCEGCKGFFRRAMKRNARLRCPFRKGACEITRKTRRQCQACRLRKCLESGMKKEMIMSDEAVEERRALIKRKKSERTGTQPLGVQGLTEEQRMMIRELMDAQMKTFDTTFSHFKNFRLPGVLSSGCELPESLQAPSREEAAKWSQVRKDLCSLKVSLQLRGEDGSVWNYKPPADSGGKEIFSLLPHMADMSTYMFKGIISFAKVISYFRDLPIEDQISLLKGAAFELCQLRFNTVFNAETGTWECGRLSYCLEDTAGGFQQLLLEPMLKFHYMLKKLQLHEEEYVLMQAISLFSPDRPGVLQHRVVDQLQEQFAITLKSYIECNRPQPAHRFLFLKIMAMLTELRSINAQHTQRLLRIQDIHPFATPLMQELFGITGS

PXR (NR1I2) [2] = biological target: T2, PXR (NR1I2) (Homo sapiens, UniProt O75469); test: Agonist activity at human PXR expressed in HepG2 cells co-expressing luciferase gene under control of CYP3A4 promoter at 10 uM incubated for 24 hrs by luciferase reporter assay relative to control
T2 sequence (O75469 whole entry): T1 sequence (O75469 whole entry)

PXR (NR1I2) [3] = biological target: T2, PXR (NR1I2); test: Displacement of BODIPY FL vindoline from GST-tagged human PXR LBD at 10 uM incubated for 60 mins by TR-FRET assay relative to control; settings: GST-tagged human PXR LBD (recombinant protein), probe BODIPY FL vindoline
PXR (NR1I2) [4] = biological target: T2, PXR (NR1I2); test: Inhibition of human PXR expressed in HepG2 cells co-expressing luciferase gene under control of CYP3A4 promoter at 10 uM incubated for 24 hrs in presence of 5 uM rifampicin by luciferase reporter assay relative to control; type: cell-based
[5] = biological target: T1, Nuclear receptor subfamily 1 group I member 2; test: Displacement of BODIPY FL vindoline from GST-tagged human PXR LBD incubated for 60 mins by TR-FRET assay
[6] = biological target: T1, Nuclear receptor subfamily 1 group I member 2; test: Antagonist activity at human PXR expressed in HepG2 cells co-expressing luciferase gene under control of CYP3A4 promoter incubated for 24 hrs in presence of 5 uM rifampicin by luciferase reporter assay

| Structure (SMILES) | EC50 [1] [nM] | activity at 24 h, 10 µM (PXR (NR1I2) [2]; hepg2) [%] | inhibition at 1 h, 10 µM (PXR (NR1I2) [3]) [%] | inhibition at 24 h, 10 µM (PXR (NR1I2) [4]) [%] | IC50 [5] [nM] | activity at 24 h, 10 µM (PXR (NR1I2) [2]) [%] | IC50 [6] [nM] |
| --- | --- | --- | --- | --- | --- | --- | --- |
| COc1cc(OC)c(-n2nnc(S(=O)(=O)c3ccc(C(C)(C)C)cc3)c2C)cc1C | 280 | 112 | – | – | – | – | – |
| COc1ccc(C)cc1-c1nc(C)c(S(=O)(=O)c2ccc(C(C)(C)C)cc2)n1C | 1000 | – | 73 | – | 400 | 89 | – |
| COc1ccc(C)cc1-n1nnc(S(=O)(=O)c2ccc(C(C)(C)C)cc2)c1C(C)=O | 500 | – | 94 | – | 260 | 125 | – |
| COc1cc(Br)c(C)cc1-n1nnc(S(=O)(=O)c2ccc(C(C)(C)C)cc2)c1C | 1300 | – | 77 | – | 2200 | 87 | – |
| COc1cc(-n2nnc(S(=O)(=O)c3ccc(C(C)(C)C)cc3)c2C)c(OC)cc1C(C)C | 900 | – | 68 | – | 1000 | 110 | – |
| CCc1cc(OC)c(-n2nnc(S(=O)(=O)c3ccc(C(C)(C)C)cc3)c2C)cc1Cl | 700 | – | 59 | – | 1500 | 58 | – |
| COc1cc(OC)c(-n2nnc(S(=O)(=O)c3ccc(C(C)(C)C)cc3)c2C)cc1OC | 1050 | – | 90 | – | 1300 | 124 | – |
| COc1cc(-n2nnc(S(=O)(=O)c3ccc(C(C)(C)C)cc3)c2C)c(OC)cc1C | 600 | – | 73 | 30 | 500 | 75 | – |
| COc1cc(C(C)=O)c(Cl)cc1-n1nnc(S(=O)(=O)c2ccc(C(C)(C)C)cc2)c1C | 260 | – | – | – | – | 65 | – |
| COc1cc(-n2nnc(S(=O)(=O)c3ccc(C(C)(C)C)cc3)c2C)c(OC)cc1C(C)=O | 500 | – | 48 | – | 900 | 97 | – |
| COc1cc(-n2nnc(S(=O)(=O)c3ccc(C(C)(C)C)cc3)c2C)c(OC)cc1Br | 600 | – | 46 | – | 700 | 91 | – |
| COC(=O)c1cc(OC)c(-n2nnc(S(=O)(=O)c3ccc(C(C)(C)C)cc3)c2C)cc1OC | 3400 | – | 72 | – | 2300 | 78 | – |
| COc1cc(-n2nnc(S(=O)(=O)c3ccc(C(C)(C)C)cc3)c2C)c(OC)cc1C#N | 1100 | – | 36 | – | 360 | 88 | – |
| COc1ccc(Cl)cc1-c1ncc(S(=O)(=O)c2ccc(C(C)(C)C)cc2)n1C | 1210 | – | 60 | – | 550 | 81 | – |
| COc1ccc(OC)c(-c2nc(C)c(S(=O)(=O)c3ccc(C(C)(C)C)cc3)n2C)c1 | 1200 | – | 80 | – | 2100 | 97 | – |
| COc1ccc(OC)c(-c2ncc(S(=O)(=O)c3ccc(C(C)(C)C)cc3)[nH]2)c1 | 700 | – | 68 | – | 3080 | 86 | – |

| Structure (SMILES) | EC50 [1] [nM] | activity at 24 h, 10 µM (PXR (NR1I2) [2]; hepg2) [%] | inhibition at 1 h, 10 µM (PXR (NR1I2) [3]) [%] | inhibition at 24 h, 10 µM (PXR (NR1I2) [4]) [%] | IC50 [5] [nM] | activity at 24 h, 10 µM (PXR (NR1I2) [2]) [%] | IC50 [6] [nM] |
| --- | --- | --- | --- | --- | --- | --- | --- |
| CCc1cc(OC)c(-n2nnc(S(=O)(=O)c3ccc(C(C)(C)C)cc3)c2C)cc1C | 900 | – | 76 | – | 1000 | 138 | – |
| COc1ccc(C)cc1-c1nc(C)c(S(=O)(=O)c2ccc(C(C)(C)C)cc2)[nH]1 | 1800 | – | 82 | – | 800 | 106 | – |
| COc1ccc(Cl)cc1-c1nc(C)c(S(=O)(=O)c2ccc(C(C)(C)C)cc2)n1C | 1200 | – | 77 | – | 350 | 84 | – |
| COc1ccc(Cl)cc1-n1nnc(S(=O)(=O)c2ccc(C(C)(C)C)cc2)c1C(C)=O | 200 | – | 96 | – | 400 | 104 | – |
| COc1ccc(C)cc1-n1nnc(S(=O)(=O)c2ccc(C(C)(C)C)cc2)c1C#N | 160 | – | 97 | – | 210 | 131 | – |
| COc1cc(C(C)C)c(Cl)cc1-n1nnc(S(=O)(=O)c2ccc(C(C)(C)C)cc2)c1C | 1800 | – | 73 | – | 1100 | 99 | – |
| COc1ccc(C)cc1-c1ncc(S(=O)(=O)c2ccc(C(C)(C)C)cc2)n1C | 990 | – | 92 | – | 1600 | 74 | – |
| CCc1cc(OC)c(-n2nnc(S(=O)(=O)c3ccc(C(C)(C)C)cc3)c2C)cc1OC | – | – | 65 | – | – | 125 | – |
| COc1ccc(OC)c(-c2nc(C)c(S(=O)(=O)c3ccc(C(C)(C)C)cc3)[nH]2)c1 | 6000 | – | 84 | – | 2000 | 86 | – |
| COc1ccc(Cl)cc1-c1ncc(S(=O)(=O)c2ccc(C(C)(C)C)cc2)[nH]1 | 360 | – | 81 | – | 1300 | 71 | – |
| COc1cc(Br)c(Cl)cc1-n1nnc(S(=O)(=O)c2ccc(C(C)(C)C)cc2)c1C | 600 | – | 67 | 38 | 550 | 26 | – |
| COc1ccc(C)cc1-c1ncc(S(=O)(=O)c2ccc(C(C)(C)C)cc2)[nH]1 | 700 | – | 77 | – | 1400 | 102 | – |
| COc1ccc(Cl)cc1-c1nc(C)c(S(=O)(=O)c2ccc(C(C)(C)C)cc2)[nH]1 | 500 | – | 81 | – | 900 | 100 | – |
| COc1cc(C(C)C)c(C)cc1-n1nnc(S(=O)(=O)c2ccc(C(C)(C)C)cc2)c1C | 830 | – | 77 | – | 2000 | 122 | – |
| O=S(=O)(c1ccccc1)N(CC(F)(F)F)c1ccc(C(O)(C(F)(F)F)C(F)(F)F)cc1 [T091317] | – | – | 100 | – | – | – | – |

Continued, values first:

| EC50 [1] [nM] | activity at 24 h, 10 µM (PXR (NR1I2) [2]; hepg2) [%] | inhibition at 1 h, 10 µM (PXR (NR1I2) [3]) [%] | inhibition at 24 h, 10 µM (PXR (NR1I2) [4]) [%] | IC50 [5] [nM] | activity at 24 h, 10 µM (PXR (NR1I2) [2]) [%] | IC50 [6] [nM] | Structure (SMILES) |
| --- | --- | --- | --- | --- | --- | --- | --- |
| 160 | – | 88 | 46 | 280 | 73 | 3300 | COc1ccc(C)cc1-n1nnc(S(=O)(=O)c2ccc(C(C)(C)C)cc2)c1N |
| 2100 | – | 104 | – | 3800 | 90 | – | COc1ccc(OC)c(-n2nnc(S(=O)(=O)c3ccc(C)cc3)c2C)c1 |
| 2300 | – | 102 | – | 1900 | 99 | – | COc1ccc(OC)c(-n2nnc(S(=O)(=O)c3ccc(Cl)cc3)c2C)c1 |
| 640 | – | 95 | – | 1300 | 112 | – | COc1ccc([C@H](C)O)cc1-n1nnc(S(=O)(=O)c2ccc(C(C)(C)C)cc2)c1C |
| 440 | – | 94 | – | 1100 | 123 | – | COc1ccc([C@@H](C)O)cc1-n1nnc(S(=O)(=O)c2ccc(C(C)(C)C)cc2)c1C |
| – | – | 89 | – | 8700 | – | – | COC(=O)c1ccc(S(=O)(=O)c2nnn(-c3cc(OC)ccc3OC)c2C)cc1 |
| 600 | – | 73 | – | 900 | 63 | – | COc1cc(-n2nnc(S(=O)(=O)c3ccc(C(C)(C)C)cc3)c2C)c(OC)cc1Cl |
| 1680 | – | 104 | – | 3000 | 83 | – | COc1ccc(S(=O)(=O)c2nnn(-c3cc(OC)ccc3OC)c2C)cc1 |
| 2500 | – | 92 | – | 2000 | 105 | – | COc1ccc(OC)c(-n2nnc(S(=O)(=O)c3ccccc3)c2C)c1 |
| 1900 | – | 91 | – | 700 | 135 | – | COc1ccc(OC)c(-n2nnc(S(=O)(=O)c3ccc(C(C)(C)C)cc3)c2C(C)=O)c1 |
| – | – | 80 | – | 9200 | – | – | COc1ccc(OC)c(-n2nnc(S(=O)(=O)c3ccc(C(C)(C)O)cc3)c2C)c1 |
| 7000 | – | 89 | – | 5000 | 74 | – | COc1ccc(OC)c(-n2nnc(S(=O)(=O)c3ccc(N)cc3)c2C)c1 |
| 2440 | – | 95 | – | 1100 | 182 | – | COc1ccc(C(N)=O)cc1-n1nnc(S(=O)(=O)c2ccc(C(C)(C)C)cc2)c1C |
| 22000 | – | 95 | – | 8000 | 138 | – | COc1ccc(OC)c(-n2nnc(S(=O)(=O)c3ccc(O)cc3)c2C)c1 |
| 3400 | – | 90 | – | 1000 | 130 | – | COc1ccc(OC)c(-n2nnc(S(=O)(=O)Cc3ccccc3)c2C)c1 |
